The values below come from PubChem BioAssay (NCI).

What all share (experiment): growth of human tumour cells (NCI), 48 h
The subject of assay [1] is COLO 205 colon.
Assay [2] relates to SN12C renal.
For assay [3], the system named is MDA-N.
Assay [4] relates to MALME-3M melanoma.
For assay [5], the system named is RPMI-8226 leukemia.
For assay [6], the system named is TK-10 renal.
The subject of assay [7] is BT-549 breast.
The test system of assay [8] is EKVX NSCLC.
In assay [9] the test system is SK-MEL-5 melanoma.
Assay [10] concerns ACHN renal.
The subject of assay [11] is A549 NSCLC.
Assay [12] relates to MDA-MB-231 breast.
Assay [13] deals with SK-MEL-28 melanoma.
In assay [14] the test system is SK-MEL-2 melanoma.
The subject of assay [15] is SF-268 CNS.
Assay [16] has as its system HOP-62 NSCLC.
For assay [17], the system named is HOP-92 NSCLC.
The subject of assay [18] is HCT-116 colon.

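Five concentrations, 48 hours, 96-well plates. TGI: total growth inhibition.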

Regarding `CCN(CC)c1ccc2cc(C(=O)NCc3ccccc3)c(=N)oc2c1`, the TGI in assay [1] is more than 59.7 µM; in [2], more than 100 µM; in assay [3], more than 100 µM; in [4] it was 63.6 µM; in assay [5] it was more than 59.7 µM; in [6], more than 100 µM. Further, the TGI in [7] is more than 100 µM; in [8] it was more than 100 µM; in [9], more than 100 µM; in assay [10], more than 100 µM; in [11] it was more than 100 µM; in assay [12], 97 µM. Further, the TGI in [13], in assay [14], in [15], in assay [16], in assay [17] and in assay [18] was more than 100 µM each time.
With `CC(C)[Si]1(C(C)C)OCC2OC(n3c(C(=O)c4ccccc4)cc(=O)[nH]c3=O)CC2O[Si](C(C)C)(C(C)C)O1` (stereo unspecified), the TGI in [1] was 10.8 µM; in [2], 5.5 µM; in assay [3], 11.7 µM; in assay [4], 13.1 µM; in assay [5], more than 23.3 µM; in assay [6], 9.23 µM. Moreover, the TGI in [7] was determined as 16.5 µM; in assay [8], 14.6 µM; in assay [9] it was 14 µM; in [10] it was 8.58 µM; in [11], 20.5 µM; in [12], 5.67 µM. Besides, the TGI came out at 15 µM in [13]; 10.6 µM in assay [14]; 8.26 µM in assay [15]; 21.3 µM in assay [16]; 7.14 µM in assay [17]; 9.95 µM in assay [18].
Take `CCc1cc2c(c3c1CCCC3)CC1(Cc3ccc(C(=O)OC)cc3C1)C2` (stereo unspecified): the TGI in assay [1], in assay [2], in assay [3], in assay [4], in assay [5] and in [6] was more than 100 µM throughout. Besides, the TGI in assay [7], in assay [8], in assay [9], in assay [10], in assay [11] and in assay [12] was more than 100 µM in each case. The TGI in assay [13], in assay [14], in [15], in [16], in assay [17] and in [18] was more than 100 µM in each case.
With `O=C1NC(=S)NC(=O)C1=Cc1ccc(-c2ccccc2)cc1`, the TGI in assay [1], in [2], in [3], in assay [4], in assay [5] and in assay [6] was more than 100 µM throughout. Besides, the TGI in [7], in assay [8], in [9], in assay [10], in [11] and in assay [12] was more than 100 µM each time. The TGI in assay [14], in assay [15], in assay [16], in assay [17] and in assay [18] was more than 100 µM each time.
`C[C@@H]1CCC2C(C)(C)C(/C=C\C=O)C3(C)OC213` (stereo partly specified): the TGI in [1] was 55.4 µM; in [3] it was more than 100 µM; in assay [4] it was 72.1 µM; in [5], 84.5 µM; in assay [6], more than 100 µM; in assay [7], more than 100 µM. The TGI in assay [8] is more than 100 µM; in assay [9] it was 53.2 µM; in assay [10], more than 100 µM; in [11], more than 100 µM; in [12], more than 100 µM; in [13], more than 100 µM. In addition, the TGI in assay [14] is more than 100 µM; in assay [15], more than 100 µM; in assay [16], more than 100 µM; in [17] it was 93.9 µM; in assay [18], 98.2 µM.
As to `CN=C(N)N=Nc1c(O)[nH]c2ccccc12`, the TGI in [1], in [2], in [3], in assay [4], in assay [5] and in [6] was more than 100 µM in each case. For the same compound, the TGI in [7], in assay [8], in assay [9], in assay [10], in assay [11] and in assay [12] was more than 100 µM throughout. Also, the TGI in assay [13], in assay [14], in assay [15], in assay [16], in assay [17] and in [18] was more than 100 µM throughout.
As for `CC(C)CC1c2[nH]c3ccccc3c2C[C@H]2C(=O)NC(CCCCNC(=O)OC(C)(C)C)C(=O)N12` (stereo partly specified), the TGI was 72.2 µM in assay [1]; 77.4 µM in assay [2]; more than 100 µM in assay [3]; 78.5 µM in assay [4]; 58.5 µM in assay [5]; more than 100 µM in assay [6]. The TGI in assay [7] was 95.5 µM; in assay [8] it was more than 100 µM; in [9], more than 100 µM; in assay [10], more than 100 µM; in assay [11] it was more than 100 µM; in assay [12] it was 51.1 µM. The TGI is more than 100 µM in assay [13]; 46.8 µM in assay [14]; more than 100 µM in assay [15]; more than 100 µM in [16]; 89.8 µM in assay [17]; more than 100 µM in assay [18].
Regarding `CC(=O)C1(C)CC(C#N)(C#N)C(C#N)=C1N` (stereo unspecified), the TGI in assay [1], in assay [2], in [3], in [4], in [5] and in assay [6] was more than 100 µM in each case. Further, the TGI in assay [7] was more than 100 µM; in assay [8] it was 85.2 µM; in assay [9] it was more than 100 µM; in assay [10] it was more than 100 µM; in assay [11], more than 100 µM; in [12], more than 100 µM. The TGI was more than 100 µM in assay [14]; more than 100 µM in [15]; more than 100 µM in [16]; 55.3 µM in [17]; more than 100 µM in assay [18].
